Reference: article PMC6173509, “C-3- and C-4-Substituted Bicyclic Coumarin Sulfamates as Potent Steroid Sulfatase Inhibitors” (ACS Omega, 2018)

Key:
[1] = target: T1, steroid sulfatase (STS) (Homo sapiens, UniProt P08842); experiment: STS inhibition in intact MCF-7 breast cancer cells; type: cell-based; set-up: endogenous in cells; host or cells: MCF-7 breast cancer cells; conditions: for IC50: 3 nM E1S; for inhibition at 0.01 µM: MCF7, read-out: % Inhibition of STS Activity in Intact MCF-7 Breast Cancer Cells at 0.01 μM; for inhibition at 0.1 µM: MCF7, read-out: % Inhibition of STS Activity in Intact MCF-7 Breast Cancer Cells at 0.1 μM; for inhibition at 1 µM: MCF7, read-out: % Inhibition of STS Activity in Intact MCF-7 Breast Cancer Cells at 1 μM; for inhibition at 10 µM: MCF7, read-out: % Inhibition of STS Activity in Intact MCF-7 Breast Cancer Cells at 10 μM
T1 sequence (P08842 22-583): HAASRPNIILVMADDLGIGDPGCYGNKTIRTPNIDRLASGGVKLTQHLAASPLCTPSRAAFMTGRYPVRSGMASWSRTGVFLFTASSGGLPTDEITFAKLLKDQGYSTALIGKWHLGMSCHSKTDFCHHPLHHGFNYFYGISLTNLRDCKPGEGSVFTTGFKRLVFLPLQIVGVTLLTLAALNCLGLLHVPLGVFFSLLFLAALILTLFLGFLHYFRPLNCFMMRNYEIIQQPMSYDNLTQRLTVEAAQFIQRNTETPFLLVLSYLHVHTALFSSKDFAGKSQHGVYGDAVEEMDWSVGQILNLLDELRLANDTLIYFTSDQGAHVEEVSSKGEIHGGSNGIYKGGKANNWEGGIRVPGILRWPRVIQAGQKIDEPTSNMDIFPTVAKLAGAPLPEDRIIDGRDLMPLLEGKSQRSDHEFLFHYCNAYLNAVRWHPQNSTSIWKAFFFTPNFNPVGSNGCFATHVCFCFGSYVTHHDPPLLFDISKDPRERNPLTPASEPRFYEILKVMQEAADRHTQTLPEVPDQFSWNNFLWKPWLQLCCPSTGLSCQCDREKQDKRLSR

[2] = target: T1, steroid sulfatase (STS); experiment: STS inhibition in placental microsomes; type: biochemical; set-up: a placental microsomal preparation from a sulfatase-positive human placenta from a normal term pregnancy; from tissue; host or cells: human placenta (microsomal preparation); conditions: 20 μM E1S; for inhibition at 0.01 µM: 0.01 μM inhibitor; for inhibition at 0.1 µM: 0.1 μM inhibitor; for inhibition at 1 µM: 1 μM inhibitor; for inhibition at 10 µM: 10 μM inhibitor

| SMILES | IC50 [1] [nM] | inhibition at 0.01 µM [1] [%] | inhibition at 0.1 µM [1] [%] | inhibition at 0.01 µM [2] [%] | inhibition at 0.1 µM [2] [%] | inhibition at 1 µM [2] [%] | inhibition at 10 µM [2] [%] | IC50 [2] [nM] | inhibition at 1 µM [1] [%] | inhibition at 10 µM [1] [%] |
| --- | --- | --- | --- | --- | --- | --- | --- | --- | --- | --- |
| Cc1c(-c2ccccc2)c(=O)oc2cc(OS(N)(=O)=O)ccc12 [compound 40, 4-Methyl-3-phenylcoumarin-7-O-sulfamate] | 25 | 32 | 75 | 8 | 65 | 95 | 99 | 54 | – | – |
| Cc1c(CCc2ccccc2)c(=O)oc2cc(OS(N)(=O)=O)ccc12 [compound 42, 4-Methyl-3-(2-phenylethyl)coumarin-7-O-sulfamate] | 1.1 | 93 | 98 | 45 | 91 | 99 | 100 | 33 | 99 | – |
| CC(C)c1cc(=O)oc2cc(OS(N)(=O)=O)ccc12 [compound 19, 4-(Prop-2-yl)coumarin-7-O-sulfamate] | – | – | – | – | 86 | 90 | 94 | – | – | – |
| CCCCCCCCc1c(C)c2ccc(OS(N)(=O)=O)cc2oc1=O [compound 31, 4-Methyl-3-octylcoumarin-7-O-sulfamate] | – | – | 99 | 21 | 71 | 98 | 99 | – | 100 | 100 |
| CCCCCCCCCCCc1c(C)c2ccc(OS(N)(=O)=O)cc2oc1=O [compound 34, 4-Methyl-3-undecylcoumarin-7-O-sulfamate] | – | – | – | – | – | – | – | 2000 | – | – |
| CCCCCc1c(C)c2ccc(OS(N)(=O)=O)cc2oc1=O [compound 28, 4-Methyl-3-pentylcoumarin-7-O-sulfamate] | – | – | 97 | 41 | 94 | 99 | 100 | 12 | 99 | 100 |
| CCCCCCCCCCCCc1cc(=O)oc2cc(OS(N)(=O)=O)ccc12 [compound 17, 4-Dodecylcoumarin-7-O-sulfamate] | – | 22 | 67 | 17 | 68 | 89 | 96 | 45 | 95 | 98 |
| CCCCCc1cc(=O)oc2cc(OS(N)(=O)=O)ccc12 [compound 10, 4-Pentylcoumarin-7-O-sulfamate] | 10 | 52 | 88 | 22 | 70 | 97 | 99 | 40 | 92 | 95 |
| CCCCCCCCCCCc1cc(=O)oc2cc(OS(N)(=O)=O)ccc12 [compound 16, 4-Undecylcoumarin-7-O-sulfamate] | – | – | – | 8 | 56 | 92 | 97 | 73 | – | – |
| Cc1c(CCC2CCCCC2)c(=O)oc2cc(OS(N)(=O)=O)ccc12 [compound 45, 3-(2-Cyclohexylethyl)-4-methylcoumarin-7-O-sulfamate] | – | – | – | – | 37 | 99 | – | – | – | – |
| NS(=O)(=O)Oc1ccc2c(CC34CC5CC(CC(C5)C3)C4)cc(=O)oc2c1 [compound 27, 4-(1-Adamantanemethyl)coumarin-7-O-sulfamate] | – | – | – | – | 8 | 96 | – | – | – | – |
| CCCCCCCCCCCCCc1cc(=O)oc2cc(OS(N)(=O)=O)ccc12 [compound 18, 4-Tridecylcoumarin-7-O-sulfamate] | 3.2 | 72 | 96 | 7 | 55 | 80 | 91 | 85 | – | – |
| NS(=O)(=O)Oc1ccc2c(Cc3ccccc3)cc(=O)oc2c1 [compound 23, 4-Benzylcoumarin-7-O-sulfamate] | 75 | 8 | 55 | 2 | 61 | 96 | 99 | 64 | 70 | 84 |
| CCCCCCc1cc(=O)oc2cc(OS(N)(=O)=O)ccc12 [compound 11, 4-Hexylcoumarin-7-O-sulfamate] | – | – | 87 | 6 | 70 | 97 | 99 | 52 | 90 | 93 |
| Cc1c(CC2CCCCC2)c(=O)oc2cc(OS(N)(=O)=O)ccc12 [compound 44, 3-Cyclohexylmethyl-4-methylcoumarin-7-O-sulfamate] | – | – | – | – | 74 | 99 | – | – | – | – |
| CCCCCCCCCCc1c(C)c2ccc(OS(N)(=O)=O)cc2oc1=O [compound 33, 3-Decyl-4-methylcoumarin-7-O-sulfamate] | < 10 | 80 | 97 | 3 | 33 | 79 | 94 | 250 | 99 | 97 |
| Cc1c(CCCc2ccccc2)c(=O)oc2cc(OS(N)(=O)=O)ccc12 [compound 43, 4-Methyl-3-[3-phenylpropyl]coumarin-7-O-sulfamate] | – | – | 87 | – | 47 | 99 | – | – | 99 | 100 |
| Cc1c(Cl)c(=O)oc2cc(OS(N)(=O)=O)ccc12 [compound 39, 3-Chloro-4-methylcoumarin-7-O-sulfamate] | 600 | – | 29 | – | – | – | – | – | 67 | 87 |
| CCCCCCCCCc1cc(=O)oc2cc(OS(N)(=O)=O)ccc12 [compound 14, 4-Nonylcoumarin-7-O-sulfamate] | – | 90 | 96 | 18 | 79 | 97 | 99 | 60 | 98 | 100 |
| CCCCCCCCCc1c(C)c2ccc(OS(N)(=O)=O)cc2oc1=O [compound 32, 4-Methyl-3-nonylcoumarin-7-O-sulfamate] | ~10 | 57 | 96 | 21 | 85 | 97 | 98 | – | 99 | 99 |
| CCCCCCc1c(C)c2ccc(OS(N)(=O)=O)cc2oc1=O [compound 29, 3-Hexyl-4-methylcoumarin-7-O-sulfamate] | – | – | 99 | 13 | 88 | 99 | 99 | – | 100 | 100 |
| CCCCCCCc1c(C)c2ccc(OS(N)(=O)=O)cc2oc1=O [compound 30, 3-Heptyl-4-methylcoumarin-7-O-sulfamate] | – | – | 99 | 23 | 65 | 97 | 99 | – | 100 | 100 |
| CCc1ccc(-c2cc(=O)oc3cc(OS(N)(=O)=O)ccc23)cc1 [compound 25, 4-(4-Ethylphenyl)coumarin-7-O-sulfamate] | 350 | 6 | 24 | – | – | 27 | 85 | 2600 | 73 | 84 |
| CC(C)Cc1cc(=O)oc2cc(OS(N)(=O)=O)ccc12 [compound 20, 4-(1′,1′-Dimethylethyl)coumarin-7-O-sulfamate] | – | – | – | – | 19 | 97 | – | – | – | – |
| CCCCCCCCc1cc(=O)oc2cc(OS(N)(=O)=O)ccc12 [compound 13, 4-Octylcoumarin-7-O-sulfamate] | – | – | 90 | 28 | 74 | 97 | 99 | 68 | 97 | 99 |
| CCCCCCCCCCCCCCc1c(C)c2ccc(OS(N)(=O)=O)cc2oc1=O [compound 37, 4-Methyl 3-tetradecylcoumarin-7-O-sulfamate] | – | – | – | – | – | – | – | 10000 | – | – |
